In patent US9198896B2 (priority 2006, dated 2015):

Assays:
[1] = tested on: Ehrlich ascites cells; test: Loss of viability of Ehrlich ascites cells on incubation; settings: read-out: reduction of viability of Ehrlich ascites cells
[2] = tested on: EAC cells; test: Tumor growth inhibition study; settings: individually, at the concentrations mentioned in Table 7
Experimental: Tumor growth inhibition study: For this study, the total number of EAC cells was counted. The ascites fluid containing cells were quantitatively removed from peritoneal cavity of two mice for a particular drug combination. The cavity was further washed twice with a fixed volume of 0.9% NaCl. The washing and the ascites fluid containing the cells were pooled and centrifuged at 2000×g for 5 min. The packed cell volumes were noted. A fixed amount of aliquot from the packed cells was appropriately diluted, and the number of cells was counted in a hemocytometer. Averages (X^−±SEM) were made of these two parameters, and percentage inhibitions [(1−T/C)×100] were calculated for each dose of different test combinations.

SMILES	cytotoxicity at 200 µM [1] [%]	effect on EAC cells inoculated mice [2]
COc1ccc2[nH]cc(CCNC(C)=O)c2c1 [melatonin]	~10	–
CN(CC(=O)O)C(=N)N [creatine]	–	no effect
O=C1O[C@H]([C@@H](O)CO)C(O)=C1O [ascorbic acid, reference compound]	–	no effect
